These results are taken from ChEMBL document CHEMBL1201862, “PubChem BioAssay data set” (2004).

The target of test [1] is T1, Sentrin-specific protease 8 (Homo sapiens, UniProt Q96LD8).
T1 sequence (Q96LD8 whole entry): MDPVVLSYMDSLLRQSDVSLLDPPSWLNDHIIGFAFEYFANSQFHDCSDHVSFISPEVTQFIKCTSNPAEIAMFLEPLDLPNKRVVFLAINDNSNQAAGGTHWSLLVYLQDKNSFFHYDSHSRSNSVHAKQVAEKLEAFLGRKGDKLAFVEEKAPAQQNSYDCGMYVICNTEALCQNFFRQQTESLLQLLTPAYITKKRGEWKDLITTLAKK
Kind of test: inhibition of human SENP8 cleavage activity – biochemical, luminescence, SAR follow-up (AID 504501). In kind it is functional.

The target of test [2] is T2, Caspase-3 (Homo sapiens, UniProt P42574).
T2 sequence (P42574 whole entry): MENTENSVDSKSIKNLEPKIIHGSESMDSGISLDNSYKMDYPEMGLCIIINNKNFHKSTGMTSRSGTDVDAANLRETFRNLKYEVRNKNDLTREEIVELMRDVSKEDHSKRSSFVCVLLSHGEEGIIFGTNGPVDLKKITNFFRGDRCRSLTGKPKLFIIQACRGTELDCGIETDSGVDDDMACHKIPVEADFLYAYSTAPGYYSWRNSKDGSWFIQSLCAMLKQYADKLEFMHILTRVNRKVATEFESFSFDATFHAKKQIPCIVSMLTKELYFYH
In words: SAR Analysis of small molecule inhibitors of Sentrin-specific proteases (SENPs) using a Caspase-3 Selectivity assay. [Related pubchem assays (depositor defined):AID2540, AID2599, AID434973, AID489001]. In kind it is functional.

The target of test [3] is T3, Sentrin-specific protease 7 (Homo sapiens, UniProt Q9BQF6).
T3 sequence (Q9BQF6 whole entry): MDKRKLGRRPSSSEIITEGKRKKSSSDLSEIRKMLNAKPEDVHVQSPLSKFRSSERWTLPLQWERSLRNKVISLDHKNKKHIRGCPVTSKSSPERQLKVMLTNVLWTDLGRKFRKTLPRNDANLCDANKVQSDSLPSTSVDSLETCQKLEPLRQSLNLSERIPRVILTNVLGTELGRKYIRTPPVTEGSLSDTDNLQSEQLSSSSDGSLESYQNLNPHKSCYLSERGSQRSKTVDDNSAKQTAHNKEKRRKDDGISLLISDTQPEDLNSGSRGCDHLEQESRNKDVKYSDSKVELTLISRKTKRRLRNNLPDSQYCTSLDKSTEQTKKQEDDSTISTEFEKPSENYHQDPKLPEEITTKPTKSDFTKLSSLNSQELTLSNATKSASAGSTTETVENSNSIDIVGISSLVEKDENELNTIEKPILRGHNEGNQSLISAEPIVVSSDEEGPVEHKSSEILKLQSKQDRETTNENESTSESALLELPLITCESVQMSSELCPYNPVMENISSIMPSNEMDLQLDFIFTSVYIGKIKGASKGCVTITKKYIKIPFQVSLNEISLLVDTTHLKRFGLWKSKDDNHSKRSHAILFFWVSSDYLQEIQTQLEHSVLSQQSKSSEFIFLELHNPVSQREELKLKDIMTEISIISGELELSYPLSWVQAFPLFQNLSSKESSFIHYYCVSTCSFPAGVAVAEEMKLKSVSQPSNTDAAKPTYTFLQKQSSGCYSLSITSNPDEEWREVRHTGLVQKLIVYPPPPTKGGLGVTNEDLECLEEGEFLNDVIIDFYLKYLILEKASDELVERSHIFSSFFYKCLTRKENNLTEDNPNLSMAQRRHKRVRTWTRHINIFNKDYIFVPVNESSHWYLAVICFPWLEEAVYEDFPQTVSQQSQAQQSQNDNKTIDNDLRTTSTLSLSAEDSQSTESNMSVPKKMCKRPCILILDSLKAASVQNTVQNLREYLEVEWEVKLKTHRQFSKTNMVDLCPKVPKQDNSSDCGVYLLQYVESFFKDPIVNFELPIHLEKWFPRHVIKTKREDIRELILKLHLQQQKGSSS
In words: inhibition of human SENP7 cleavage activity – biochemical, luminescence, SAR follow-up (AID 504497). The format is functional.

Test [4] has as its target T4, Sentrin-specific protease 6 (Homo sapiens, UniProt Q9GZR1).
T4 sequence (Q9GZR1 whole entry): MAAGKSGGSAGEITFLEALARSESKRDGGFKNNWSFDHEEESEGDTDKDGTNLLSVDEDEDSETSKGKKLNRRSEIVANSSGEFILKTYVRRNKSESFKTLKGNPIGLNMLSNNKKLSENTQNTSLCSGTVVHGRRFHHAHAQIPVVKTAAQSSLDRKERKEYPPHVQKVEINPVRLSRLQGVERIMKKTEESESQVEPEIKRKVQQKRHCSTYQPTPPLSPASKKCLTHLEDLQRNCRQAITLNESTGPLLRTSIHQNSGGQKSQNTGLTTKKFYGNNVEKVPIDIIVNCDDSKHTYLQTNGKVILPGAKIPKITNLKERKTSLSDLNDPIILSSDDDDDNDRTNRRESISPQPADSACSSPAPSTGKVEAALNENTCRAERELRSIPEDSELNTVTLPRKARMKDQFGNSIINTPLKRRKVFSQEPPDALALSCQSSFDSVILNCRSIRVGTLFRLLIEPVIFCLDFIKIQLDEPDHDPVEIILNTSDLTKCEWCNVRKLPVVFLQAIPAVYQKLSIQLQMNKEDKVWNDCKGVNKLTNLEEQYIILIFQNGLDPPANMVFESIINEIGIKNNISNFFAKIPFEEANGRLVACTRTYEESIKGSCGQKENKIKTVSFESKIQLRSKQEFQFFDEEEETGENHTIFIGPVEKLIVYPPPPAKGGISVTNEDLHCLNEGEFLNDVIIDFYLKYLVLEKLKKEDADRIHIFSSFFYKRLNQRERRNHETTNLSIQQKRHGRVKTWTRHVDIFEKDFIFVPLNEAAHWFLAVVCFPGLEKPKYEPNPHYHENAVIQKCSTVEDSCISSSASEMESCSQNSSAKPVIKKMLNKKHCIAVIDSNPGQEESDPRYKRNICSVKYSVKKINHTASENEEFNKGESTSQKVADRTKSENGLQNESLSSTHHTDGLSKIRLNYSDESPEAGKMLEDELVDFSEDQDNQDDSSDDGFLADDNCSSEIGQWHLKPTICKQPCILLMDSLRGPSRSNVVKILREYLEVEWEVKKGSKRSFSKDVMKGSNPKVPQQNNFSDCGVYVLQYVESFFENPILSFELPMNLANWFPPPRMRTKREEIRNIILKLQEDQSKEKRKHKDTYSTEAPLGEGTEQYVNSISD
Kind of test: SAR Analysis of small molecule inhibitors of Sentrin-specific protease 6 (SENP6) using a Luminescent assay. [Related pubchem assays (depositor defined):AID2582, AID2599]. In kind it is functional.

In test [5] the target is Multidrug resistance protein CDR1 (Candida albicans, UniProt P43071). Kind of test: inhibition of Nile Red efflux via Candida CDR1 – S. cerevisiae AD1-8u, singleplex, Cherry Pick1 hits, dose response (AID 588606). The format is functional.
In another test the target is Aspartyl aminopeptidase (Plasmodium falciparum 3D7, UniProt Q8I2J3).
Sequence of Aspartyl aminopeptidase (Q8I2J3 whole entry): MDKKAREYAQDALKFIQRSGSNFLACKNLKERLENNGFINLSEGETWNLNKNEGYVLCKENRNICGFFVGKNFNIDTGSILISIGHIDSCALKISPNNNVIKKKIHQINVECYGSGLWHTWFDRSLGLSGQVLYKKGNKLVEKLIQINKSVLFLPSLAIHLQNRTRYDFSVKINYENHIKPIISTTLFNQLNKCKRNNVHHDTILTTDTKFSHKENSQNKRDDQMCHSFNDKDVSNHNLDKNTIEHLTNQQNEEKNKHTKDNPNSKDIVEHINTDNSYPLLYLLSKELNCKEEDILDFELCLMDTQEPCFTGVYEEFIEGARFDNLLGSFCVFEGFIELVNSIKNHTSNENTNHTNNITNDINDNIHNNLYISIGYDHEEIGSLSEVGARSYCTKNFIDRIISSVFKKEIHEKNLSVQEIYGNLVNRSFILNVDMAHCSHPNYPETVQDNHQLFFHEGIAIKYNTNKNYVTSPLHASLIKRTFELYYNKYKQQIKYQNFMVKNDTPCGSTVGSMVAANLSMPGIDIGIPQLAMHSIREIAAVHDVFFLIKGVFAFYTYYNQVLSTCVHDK
Another test deals with Procathepsin L (Homo sapiens, UniProt P07711).
A further test deals with NIH3T3. Kind of test: NIH-3T3 viability with fluconazole co-treatment – cell-based, Alamar Blue, dry powder, set 2, cytotoxicity control for antifungal resistance reversal project, dose response (AID 488911). The format is functional. Conditions: Mus musculus. (Alamar Blue is a resazurin reagent that responds to reducing activity.)
Another test has as its system Candida albicans. Kind of test: resistant Candida growth with fluconazole co-treatment – CaCi-8 strain, Alamar Blue, dry powder, set 2, dose response (AID 488909). The format is functional, organism-based.
For test [6], the target named is Insulin-like growth factor 1 receptor (Homo sapiens, UniProt P08069). In words: Navigating the Kinome. Panel member name: IGF1R. In kind it is functional.
Sequence of Insulin-like growth factor 1 receptor (P08069 31-736 limits assumed): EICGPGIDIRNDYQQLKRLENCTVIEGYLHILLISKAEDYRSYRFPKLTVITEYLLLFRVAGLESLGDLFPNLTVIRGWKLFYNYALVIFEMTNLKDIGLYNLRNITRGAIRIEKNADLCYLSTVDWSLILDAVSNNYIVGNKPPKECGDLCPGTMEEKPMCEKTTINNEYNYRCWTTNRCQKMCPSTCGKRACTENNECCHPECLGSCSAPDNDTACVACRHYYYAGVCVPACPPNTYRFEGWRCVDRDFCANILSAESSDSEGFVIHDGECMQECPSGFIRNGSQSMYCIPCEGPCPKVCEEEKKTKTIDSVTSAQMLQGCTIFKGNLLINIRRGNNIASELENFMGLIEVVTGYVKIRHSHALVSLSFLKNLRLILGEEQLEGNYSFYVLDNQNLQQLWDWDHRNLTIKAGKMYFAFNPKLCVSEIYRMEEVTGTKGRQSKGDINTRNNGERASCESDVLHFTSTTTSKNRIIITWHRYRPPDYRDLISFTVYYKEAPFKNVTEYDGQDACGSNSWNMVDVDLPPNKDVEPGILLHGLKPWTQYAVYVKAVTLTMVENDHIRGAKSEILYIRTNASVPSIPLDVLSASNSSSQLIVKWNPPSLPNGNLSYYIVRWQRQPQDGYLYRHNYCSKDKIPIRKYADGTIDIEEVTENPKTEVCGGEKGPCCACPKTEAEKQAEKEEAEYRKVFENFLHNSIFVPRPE
Sequence of Insulin-like growth factor 1 receptor (P08069 741-1367 limits assumed): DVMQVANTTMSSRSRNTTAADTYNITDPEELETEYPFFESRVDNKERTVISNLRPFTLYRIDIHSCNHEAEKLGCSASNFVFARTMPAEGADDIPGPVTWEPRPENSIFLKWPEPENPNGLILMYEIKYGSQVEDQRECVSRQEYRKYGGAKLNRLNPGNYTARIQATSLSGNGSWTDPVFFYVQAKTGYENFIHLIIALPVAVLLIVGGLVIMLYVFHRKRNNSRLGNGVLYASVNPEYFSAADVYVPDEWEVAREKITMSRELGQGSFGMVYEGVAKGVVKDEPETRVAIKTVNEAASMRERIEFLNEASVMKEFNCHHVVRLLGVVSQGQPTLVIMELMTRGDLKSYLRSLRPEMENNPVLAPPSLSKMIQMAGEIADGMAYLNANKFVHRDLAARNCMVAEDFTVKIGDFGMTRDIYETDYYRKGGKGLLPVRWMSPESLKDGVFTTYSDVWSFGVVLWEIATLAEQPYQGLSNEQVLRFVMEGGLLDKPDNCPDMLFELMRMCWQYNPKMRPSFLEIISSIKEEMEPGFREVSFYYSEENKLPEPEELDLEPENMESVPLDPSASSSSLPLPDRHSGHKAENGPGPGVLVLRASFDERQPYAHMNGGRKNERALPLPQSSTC
For test [7], the target named is Tyrosine-protein kinase ABL1 (Homo sapiens, UniProt P00519). The format is functional.
Sequence of Tyrosine-protein kinase ABL1 (P00519 whole entry): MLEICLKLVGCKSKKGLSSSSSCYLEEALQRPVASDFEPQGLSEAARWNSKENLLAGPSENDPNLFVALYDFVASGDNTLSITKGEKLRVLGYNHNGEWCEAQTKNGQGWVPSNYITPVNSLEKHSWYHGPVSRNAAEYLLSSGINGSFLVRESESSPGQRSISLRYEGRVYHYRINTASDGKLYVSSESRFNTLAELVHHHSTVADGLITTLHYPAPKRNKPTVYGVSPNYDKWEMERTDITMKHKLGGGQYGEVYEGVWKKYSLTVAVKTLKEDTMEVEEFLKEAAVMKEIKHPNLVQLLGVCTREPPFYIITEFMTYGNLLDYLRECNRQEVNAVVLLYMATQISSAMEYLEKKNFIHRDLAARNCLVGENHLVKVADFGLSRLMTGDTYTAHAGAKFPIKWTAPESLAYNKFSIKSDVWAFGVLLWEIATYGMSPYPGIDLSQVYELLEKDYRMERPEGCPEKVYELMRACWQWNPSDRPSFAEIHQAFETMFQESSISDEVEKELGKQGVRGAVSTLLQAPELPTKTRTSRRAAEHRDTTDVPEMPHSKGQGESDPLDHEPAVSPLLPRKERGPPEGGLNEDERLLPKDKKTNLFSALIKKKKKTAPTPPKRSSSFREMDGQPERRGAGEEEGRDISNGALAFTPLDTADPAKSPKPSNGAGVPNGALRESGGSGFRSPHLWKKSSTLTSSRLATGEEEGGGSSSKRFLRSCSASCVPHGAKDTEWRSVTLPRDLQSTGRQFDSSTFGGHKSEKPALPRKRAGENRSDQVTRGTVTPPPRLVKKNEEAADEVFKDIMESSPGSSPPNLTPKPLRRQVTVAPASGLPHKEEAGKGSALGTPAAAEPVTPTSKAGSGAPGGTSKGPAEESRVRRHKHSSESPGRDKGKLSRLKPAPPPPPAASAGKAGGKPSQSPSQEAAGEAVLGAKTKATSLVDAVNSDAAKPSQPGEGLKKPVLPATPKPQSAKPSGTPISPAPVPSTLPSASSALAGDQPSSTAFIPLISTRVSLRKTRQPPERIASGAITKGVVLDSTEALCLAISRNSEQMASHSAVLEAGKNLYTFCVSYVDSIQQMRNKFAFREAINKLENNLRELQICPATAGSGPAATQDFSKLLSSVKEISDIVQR
For the next test, the target named is Activin receptor type-1 (Homo sapiens, UniProt Q04771). In words: Navigating the Kinome. Panel member name: ACVR1. In kind it is functional.
Sequence of Activin receptor type-1 (Q04771 whole entry): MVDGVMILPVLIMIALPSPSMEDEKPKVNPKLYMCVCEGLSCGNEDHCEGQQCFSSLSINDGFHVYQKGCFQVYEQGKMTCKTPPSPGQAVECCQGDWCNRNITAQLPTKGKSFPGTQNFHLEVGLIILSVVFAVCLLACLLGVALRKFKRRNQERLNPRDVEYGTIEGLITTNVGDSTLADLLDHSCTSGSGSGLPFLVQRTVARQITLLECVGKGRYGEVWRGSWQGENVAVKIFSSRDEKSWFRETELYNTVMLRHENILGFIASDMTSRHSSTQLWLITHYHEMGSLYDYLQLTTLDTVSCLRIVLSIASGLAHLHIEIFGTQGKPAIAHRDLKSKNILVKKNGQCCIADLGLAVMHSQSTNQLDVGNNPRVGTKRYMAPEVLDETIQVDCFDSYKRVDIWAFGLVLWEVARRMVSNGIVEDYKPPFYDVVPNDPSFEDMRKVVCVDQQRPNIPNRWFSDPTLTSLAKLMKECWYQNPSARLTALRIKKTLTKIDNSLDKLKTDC
Test [8] deals with Dual specificity tyrosine-phosphorylation-regulated kinase 1B (Homo sapiens, UniProt Q9Y463). In words: Navigating the Kinome. Panel member name: DYRK1B. The format is functional.
Sequence of Dual specificity tyrosine-phosphorylation-regulated kinase 1B (Q9Y463 whole entry): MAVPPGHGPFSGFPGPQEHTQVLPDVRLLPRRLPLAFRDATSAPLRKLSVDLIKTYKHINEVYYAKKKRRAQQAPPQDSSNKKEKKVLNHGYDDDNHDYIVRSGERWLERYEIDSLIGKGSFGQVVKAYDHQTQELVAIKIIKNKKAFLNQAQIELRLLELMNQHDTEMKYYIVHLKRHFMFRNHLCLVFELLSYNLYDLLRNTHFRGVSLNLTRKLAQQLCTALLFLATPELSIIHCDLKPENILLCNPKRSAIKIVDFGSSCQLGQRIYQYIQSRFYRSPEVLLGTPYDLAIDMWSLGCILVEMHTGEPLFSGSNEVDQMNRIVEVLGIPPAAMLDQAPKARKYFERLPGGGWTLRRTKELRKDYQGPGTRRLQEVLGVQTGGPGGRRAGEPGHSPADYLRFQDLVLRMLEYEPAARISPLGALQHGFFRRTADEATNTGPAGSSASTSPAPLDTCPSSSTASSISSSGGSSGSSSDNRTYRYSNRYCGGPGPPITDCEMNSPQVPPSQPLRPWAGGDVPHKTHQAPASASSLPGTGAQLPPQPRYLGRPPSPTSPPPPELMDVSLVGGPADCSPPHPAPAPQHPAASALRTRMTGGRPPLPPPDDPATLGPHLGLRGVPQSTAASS
Test [9] has as its target Tyrosine-protein kinase receptor TYRO3 (Homo sapiens, UniProt Q06418). In kind it is functional.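 Note: TYRO3 value obtained as one member of a kinome-wide profiling panel.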
Test [10] concerns the target Casein kinase I isoform alpha (Homo sapiens, UniProt P48729). In kind it is functional.
For test [11], the target named is T2, Caspase-3. In words: inhibition of recombinant caspase-3 activity – biochemical, luminescence, set 2, selectivity assay for SENP protease inhibitor project, SAR follow-up (AID 588599). In kind it is functional.
In test [12] the target is T4, Sentrin-specific protease 6. In words: inhibition of human SENP6 catalytic domain – biochemical, luminescence, set 2, SAR follow-up (AID 588598). The format is functional.
Test [13] deals with T3, Sentrin-specific protease 7. Kind of test: inhibition of human SENP7 cleavage activity – biochemical, luminescence, set 2, SAR follow-up (AID 588600). In kind it is functional.
Test [14] deals with T1, Sentrin-specific protease 8. Kind of test: inhibition of sentrin protease 8 – biochemical, luminescence, set 2, SAR follow-up (AID 588601). In kind it is functional.
The target of test [15] is T5, High affinity choline transporter 1 (Homo sapiens, UniProt Q9GZV3).
T5 sequence (Q9GZV3 whole entry): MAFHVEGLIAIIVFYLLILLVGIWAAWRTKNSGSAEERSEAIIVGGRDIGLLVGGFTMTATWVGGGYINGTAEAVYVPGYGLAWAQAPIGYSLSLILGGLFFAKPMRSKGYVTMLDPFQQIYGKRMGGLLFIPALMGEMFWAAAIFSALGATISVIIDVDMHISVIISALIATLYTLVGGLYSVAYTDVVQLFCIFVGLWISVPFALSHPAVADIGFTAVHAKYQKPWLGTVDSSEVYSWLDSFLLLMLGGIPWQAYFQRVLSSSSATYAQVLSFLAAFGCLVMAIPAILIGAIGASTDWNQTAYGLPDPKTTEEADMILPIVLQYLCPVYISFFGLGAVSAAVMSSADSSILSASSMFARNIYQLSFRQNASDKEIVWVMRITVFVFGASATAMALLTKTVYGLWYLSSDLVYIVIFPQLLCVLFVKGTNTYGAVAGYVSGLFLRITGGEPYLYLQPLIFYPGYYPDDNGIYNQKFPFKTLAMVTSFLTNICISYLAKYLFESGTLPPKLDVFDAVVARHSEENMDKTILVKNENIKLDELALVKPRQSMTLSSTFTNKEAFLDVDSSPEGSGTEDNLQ
In words: human choline transporter potentiators, potency – cell-based, 10-point CRC, membrane potential dye, dose response (AID 602376). The format is functional.

Activity calls are given as the source filed them.

Sequence of Tyrosine-protein kinase receptor TYRO3 (Q06418 whole entry, canonical isoform): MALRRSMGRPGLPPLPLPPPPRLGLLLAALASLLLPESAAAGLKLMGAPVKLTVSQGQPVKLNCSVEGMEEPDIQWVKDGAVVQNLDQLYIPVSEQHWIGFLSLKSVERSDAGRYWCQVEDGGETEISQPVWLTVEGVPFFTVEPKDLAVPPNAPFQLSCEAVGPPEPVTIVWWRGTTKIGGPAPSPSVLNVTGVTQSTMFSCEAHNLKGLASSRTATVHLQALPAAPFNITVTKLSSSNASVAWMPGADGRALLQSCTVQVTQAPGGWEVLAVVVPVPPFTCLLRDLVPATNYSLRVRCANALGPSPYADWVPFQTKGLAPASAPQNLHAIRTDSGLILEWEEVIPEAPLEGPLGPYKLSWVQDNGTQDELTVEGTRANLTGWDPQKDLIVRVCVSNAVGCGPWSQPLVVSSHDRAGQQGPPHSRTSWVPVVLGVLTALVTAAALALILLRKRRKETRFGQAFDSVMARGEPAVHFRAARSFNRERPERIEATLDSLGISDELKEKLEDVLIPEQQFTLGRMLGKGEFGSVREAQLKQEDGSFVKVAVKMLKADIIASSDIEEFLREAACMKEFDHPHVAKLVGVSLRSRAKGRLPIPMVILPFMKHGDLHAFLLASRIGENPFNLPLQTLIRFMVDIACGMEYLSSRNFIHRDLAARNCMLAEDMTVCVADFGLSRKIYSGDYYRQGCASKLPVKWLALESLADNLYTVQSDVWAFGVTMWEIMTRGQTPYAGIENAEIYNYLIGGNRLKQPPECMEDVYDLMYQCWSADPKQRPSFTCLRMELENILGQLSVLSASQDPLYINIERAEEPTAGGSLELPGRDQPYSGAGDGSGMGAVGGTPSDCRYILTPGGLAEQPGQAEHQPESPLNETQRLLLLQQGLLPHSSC

The IC50 is the concentration needed to halve the response being measured. `CC(C)C(=O)Nc1ccc(-c2nc3cc(Cl)ccc3o2)cc1`: the IC50 in test [1] is > 99 µM (inactive); on Caspase-3 [2], 23.7 µM (active); in [3] it was 2.66 µM (active); in test [4], > 99 µM (inactive).

The term EC50 denotes the concentration that produces a half-maximal response. Turning to `O=C1NC(=S)NC(=O)C1=Cc1cc2ccccc2[nH]1`, in [5], the concentration giving a half-maximal response (EC50) is 6 µM (active). Moreover, the IC50 on Aspartyl aminopeptidase was 1.67 µM (active); against Procathepsin L it was > 59.6 µM (not active).

Broadly, the AC50 is the concentration giving half of the maximal activity seen. Take `COc1ccnc(N2CCN(C(=O)c3ccc(Cl)cc3)CC2)c1`: the AC50 was 96.1 µM (active) in the test on NIH3T3 and 30.4 µM (active) in the test on Candida albicans.

In general, Ki refers to a measure of affinity in units of concentration, obtained from inhibition or displacement. Turning to `CC(C)(C)c1nc2c3ccc(F)cc3c3c(=O)[nH]ccc3c2[nH]1`, the Ki is > 2.51 µM (inactive) in test [6], > 2.51 µM (inactive) in [7], > 3.98 µM (inactive) at Activin receptor type-1 and > 2.51 µM (inactive) in [8].

For the compound `NC(=O)c1ccccc1-c1ncc[nH]1`, the Ki in test [9] is 79.4 µM (active); in [10], 50.1 µM (active); in [8] it was 63.1 µM (active).

Regarding `O=C(NCC[S+]([O-])c1c(-c2ccc(F)cc2)[nH]c2ccccc12)C(=O)c1c[nH]c2ccccc12` (stereo unspecified), the IC50 on Caspase-3 [11] is 50.7 µM (active); in [12], 94.5 µM (active); in test [13] it was 88.8 µM (active); in [14], 84 µM (active).

As to `COC(=O)CCC(=O)Nc1sc2c(c1C#N)CCCC2`, the EC50 in test [15] is 14 µM (active).
